Experimental data as given in patent publication US20220265769A1, “COMPOSITIONS AND METHODS OF TREATMENT FOR BREAST CANCER INVOLVING A NOVEL CAPER?-MLL1 COMPLEX” (Geisinger Health, priority 2019, published 2022).

Columns and labels:
PME cells = experiment: Crystal violet assay / cell counts of primary mammary epithelial cells (PMEs) treated with cell penetrating peptides; type: cell-based, human; details: synthetic peptides at 5 μM
Procedure: Crystal violet assay/optical density method of cell quantitation: 5×10^5 cells were plated per well in 6-well tissue culture plates. At times indicated cells were washed with PBS and fixed for 10 minutes in a 10% formalin solution. Cells were then rinsed with distilled water and subsequently stained with 100 μl 0.1% crystal violet solution for 30 min. Stained cells were rinsed with water to remove the excess traces of the staining solution. Cell-associated crystal violet dye was extracted with 500 μl of 10% acetic acid. Aliquots were collected and optical density was measured at 590 nm wavelength. Each point on the curve shown represents 3 independent wells.
(§1) Cell counts for CPP treatments: Cells were plated in 6-well dishes and incubated with 5 μM concentration of peptides. At days noted, cells were trypsinized and counted using a hemocytometer.
Whether recombinant RRM3 conjugated with the Penetratin cell penetrating peptide (Dupont E, et al., Methods Mol Biol. 1324:29-37 (2015)) (FIGS. 9A, B) affects growth of T47D and PME cells was tested. Equal numbers of PME and T47D cells were seeded and incubated with 5 μM peptide in media for 72 hrs. […] Compared to CPP-coupled RRM3, CPP-RRM1 and RRM3 had no effect (FIGS. 9H-N). […]

[1] = molecular target: T1, RBM39 (CAPERα)/MLL1 complex (Homo sapiens, UniProt Q03164); experiment: Anti-RBM39 co-immunoprecipitation of MLL1 complex members from peptide-treated breast cancer cell lysates; type: cell-based
T1 construct: endogenous in cells; lines from ATCC
T1 sequence (Q03164 1-2718 limits assumed): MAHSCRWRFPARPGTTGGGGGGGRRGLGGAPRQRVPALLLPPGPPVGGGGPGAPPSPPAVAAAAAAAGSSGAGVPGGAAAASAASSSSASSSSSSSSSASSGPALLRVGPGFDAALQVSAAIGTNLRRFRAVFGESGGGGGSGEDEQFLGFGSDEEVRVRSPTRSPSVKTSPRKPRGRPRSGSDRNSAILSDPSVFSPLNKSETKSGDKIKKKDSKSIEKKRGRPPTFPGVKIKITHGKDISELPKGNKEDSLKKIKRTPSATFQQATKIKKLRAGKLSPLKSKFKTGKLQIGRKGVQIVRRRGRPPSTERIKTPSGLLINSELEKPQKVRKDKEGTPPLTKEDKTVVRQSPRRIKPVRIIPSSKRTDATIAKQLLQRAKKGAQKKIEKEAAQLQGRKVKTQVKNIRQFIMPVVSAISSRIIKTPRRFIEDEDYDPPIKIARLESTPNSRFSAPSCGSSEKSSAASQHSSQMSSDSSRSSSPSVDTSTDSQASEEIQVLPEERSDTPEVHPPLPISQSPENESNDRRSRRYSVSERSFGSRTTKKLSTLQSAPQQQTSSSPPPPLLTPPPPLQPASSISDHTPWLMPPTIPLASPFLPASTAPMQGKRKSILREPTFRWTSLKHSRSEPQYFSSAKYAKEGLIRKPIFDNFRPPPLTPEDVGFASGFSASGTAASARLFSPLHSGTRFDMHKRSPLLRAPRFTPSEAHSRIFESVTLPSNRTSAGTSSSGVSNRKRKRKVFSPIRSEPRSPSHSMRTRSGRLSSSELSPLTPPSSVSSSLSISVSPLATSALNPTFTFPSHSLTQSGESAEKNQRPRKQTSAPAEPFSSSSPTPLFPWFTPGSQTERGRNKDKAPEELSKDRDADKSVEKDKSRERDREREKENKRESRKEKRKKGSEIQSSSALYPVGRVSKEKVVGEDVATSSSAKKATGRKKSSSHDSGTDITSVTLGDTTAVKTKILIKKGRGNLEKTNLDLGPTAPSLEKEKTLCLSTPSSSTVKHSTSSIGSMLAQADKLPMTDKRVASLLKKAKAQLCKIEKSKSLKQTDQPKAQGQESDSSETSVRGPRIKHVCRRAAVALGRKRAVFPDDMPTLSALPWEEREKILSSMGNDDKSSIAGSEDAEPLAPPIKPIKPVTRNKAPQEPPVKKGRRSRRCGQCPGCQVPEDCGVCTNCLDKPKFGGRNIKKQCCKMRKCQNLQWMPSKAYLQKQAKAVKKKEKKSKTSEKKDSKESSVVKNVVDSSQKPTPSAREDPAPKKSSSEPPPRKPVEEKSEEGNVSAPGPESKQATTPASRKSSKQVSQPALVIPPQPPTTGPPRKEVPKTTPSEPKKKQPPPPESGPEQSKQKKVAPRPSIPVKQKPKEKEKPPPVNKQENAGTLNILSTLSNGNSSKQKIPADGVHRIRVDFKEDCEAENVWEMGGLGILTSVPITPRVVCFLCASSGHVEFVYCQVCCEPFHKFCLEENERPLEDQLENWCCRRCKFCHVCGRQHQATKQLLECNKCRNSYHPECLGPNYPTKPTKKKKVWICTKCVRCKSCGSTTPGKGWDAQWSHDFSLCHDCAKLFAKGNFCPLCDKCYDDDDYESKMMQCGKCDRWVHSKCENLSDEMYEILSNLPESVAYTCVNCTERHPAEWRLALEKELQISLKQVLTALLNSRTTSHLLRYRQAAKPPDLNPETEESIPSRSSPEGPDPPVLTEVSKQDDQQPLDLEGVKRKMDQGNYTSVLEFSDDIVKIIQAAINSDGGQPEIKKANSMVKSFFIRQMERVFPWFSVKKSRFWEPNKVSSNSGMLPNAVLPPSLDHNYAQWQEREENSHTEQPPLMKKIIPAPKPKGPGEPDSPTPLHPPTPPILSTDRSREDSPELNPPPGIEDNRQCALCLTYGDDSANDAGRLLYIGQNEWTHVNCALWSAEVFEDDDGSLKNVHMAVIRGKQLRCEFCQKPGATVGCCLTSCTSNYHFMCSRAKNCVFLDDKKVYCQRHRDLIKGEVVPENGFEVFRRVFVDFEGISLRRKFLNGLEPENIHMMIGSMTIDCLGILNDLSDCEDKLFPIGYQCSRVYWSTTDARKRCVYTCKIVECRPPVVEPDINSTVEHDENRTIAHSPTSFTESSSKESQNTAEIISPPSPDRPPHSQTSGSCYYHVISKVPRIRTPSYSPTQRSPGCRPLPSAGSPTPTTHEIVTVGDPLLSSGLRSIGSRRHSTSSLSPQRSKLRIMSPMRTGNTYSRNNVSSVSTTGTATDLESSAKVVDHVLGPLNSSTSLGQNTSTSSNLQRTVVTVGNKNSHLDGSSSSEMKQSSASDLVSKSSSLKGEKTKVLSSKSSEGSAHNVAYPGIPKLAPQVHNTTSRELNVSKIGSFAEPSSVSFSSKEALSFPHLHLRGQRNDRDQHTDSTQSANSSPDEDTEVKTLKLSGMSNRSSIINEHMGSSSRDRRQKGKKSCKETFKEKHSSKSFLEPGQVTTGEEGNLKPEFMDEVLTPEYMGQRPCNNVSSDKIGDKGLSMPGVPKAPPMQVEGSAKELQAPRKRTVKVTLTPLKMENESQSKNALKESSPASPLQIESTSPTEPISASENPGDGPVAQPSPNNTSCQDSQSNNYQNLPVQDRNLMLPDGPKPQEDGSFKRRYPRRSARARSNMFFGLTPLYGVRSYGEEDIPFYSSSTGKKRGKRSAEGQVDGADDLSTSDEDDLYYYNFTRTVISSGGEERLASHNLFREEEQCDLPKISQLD
T1 sequence (Q03164 2719-3969 limits assumed): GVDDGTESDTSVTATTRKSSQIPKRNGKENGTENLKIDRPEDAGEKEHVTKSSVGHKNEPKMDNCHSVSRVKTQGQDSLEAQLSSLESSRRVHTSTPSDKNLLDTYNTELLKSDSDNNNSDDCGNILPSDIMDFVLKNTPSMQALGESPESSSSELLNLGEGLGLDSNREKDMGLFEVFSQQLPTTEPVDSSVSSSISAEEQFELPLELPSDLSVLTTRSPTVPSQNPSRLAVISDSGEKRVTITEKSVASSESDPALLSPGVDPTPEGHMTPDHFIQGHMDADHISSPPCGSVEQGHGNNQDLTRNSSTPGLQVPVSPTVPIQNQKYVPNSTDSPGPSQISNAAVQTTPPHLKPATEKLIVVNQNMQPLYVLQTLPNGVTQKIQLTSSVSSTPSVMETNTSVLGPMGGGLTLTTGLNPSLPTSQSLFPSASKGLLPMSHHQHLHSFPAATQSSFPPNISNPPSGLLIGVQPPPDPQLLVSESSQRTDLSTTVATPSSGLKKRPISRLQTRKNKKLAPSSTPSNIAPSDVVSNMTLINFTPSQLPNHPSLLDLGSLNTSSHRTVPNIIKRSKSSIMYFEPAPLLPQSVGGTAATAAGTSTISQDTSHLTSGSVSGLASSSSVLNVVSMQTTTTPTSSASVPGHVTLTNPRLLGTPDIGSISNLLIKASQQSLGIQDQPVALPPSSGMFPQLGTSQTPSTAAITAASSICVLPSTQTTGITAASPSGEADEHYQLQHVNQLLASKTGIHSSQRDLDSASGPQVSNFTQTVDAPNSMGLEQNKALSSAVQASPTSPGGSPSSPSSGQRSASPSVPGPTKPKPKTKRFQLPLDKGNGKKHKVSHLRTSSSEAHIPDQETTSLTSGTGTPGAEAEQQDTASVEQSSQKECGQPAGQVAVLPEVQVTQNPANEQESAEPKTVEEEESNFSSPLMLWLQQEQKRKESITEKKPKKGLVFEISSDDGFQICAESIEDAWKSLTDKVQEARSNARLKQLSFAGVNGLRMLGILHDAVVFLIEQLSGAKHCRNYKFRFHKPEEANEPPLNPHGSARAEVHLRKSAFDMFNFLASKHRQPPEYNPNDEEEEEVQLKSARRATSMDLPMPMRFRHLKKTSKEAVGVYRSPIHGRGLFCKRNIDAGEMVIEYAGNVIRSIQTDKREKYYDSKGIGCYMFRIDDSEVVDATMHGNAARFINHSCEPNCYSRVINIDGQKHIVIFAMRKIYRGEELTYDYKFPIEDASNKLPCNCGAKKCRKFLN
T1 sequence (Q15291 whole entry partner): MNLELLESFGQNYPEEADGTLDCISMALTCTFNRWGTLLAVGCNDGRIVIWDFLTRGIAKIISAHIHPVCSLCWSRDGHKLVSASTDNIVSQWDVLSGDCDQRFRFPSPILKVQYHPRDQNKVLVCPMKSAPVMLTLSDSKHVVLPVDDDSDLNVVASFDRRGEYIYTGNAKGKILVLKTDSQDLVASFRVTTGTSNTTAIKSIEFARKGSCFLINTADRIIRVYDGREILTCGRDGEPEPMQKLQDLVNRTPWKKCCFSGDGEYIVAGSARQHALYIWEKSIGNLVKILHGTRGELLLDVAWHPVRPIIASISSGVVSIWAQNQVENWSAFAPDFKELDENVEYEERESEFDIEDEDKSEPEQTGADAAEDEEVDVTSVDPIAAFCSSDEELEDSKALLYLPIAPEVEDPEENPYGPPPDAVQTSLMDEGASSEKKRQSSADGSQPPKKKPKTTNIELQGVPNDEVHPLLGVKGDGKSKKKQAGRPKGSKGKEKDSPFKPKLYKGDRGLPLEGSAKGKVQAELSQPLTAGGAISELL
From the text: (§2) FIG. 31. Key structural domains mediate the RRM3-MLL1 interaction. A) Modeling of RRM3 domain structure (amino acids: 441 to 510; SEQ ID NO: 13) using the SWISS MODEL tool and conserved domains by sequence alignment with vertebrate RRM-domaining proteins (https://www.ncbi.nlm.nih.gov/Structure/cdd/cddsrv.cgi?uid=240731) B) Top: anti-MLL1 IB to test the interaction between MLL1 and myc-tagged, deletion mutant RRM3 proteins in HEK293 cells. Bottom: IB/IP to quantitate myc-tagged proteins in lysates from HEK293 overexpressing wild type and microdeleted RRM3 domains. C) Bar graphs quantitating % viable cells after peptide treatments (peptides are numbered 1-5 as in FIG. 10) for 4 days. […] Lanes are labeled with peptide names. Arrowhead highlights signal from the entry of CPP. […] F) Anti-RBM39 immunoprecipitated samples from Neg.CPP (SEQ ID NO: 12), CPP-L491-L508 (SEQ ID NO: 24), CPP-G441-V460 (SEQ ID NO: 20), and CPP-E445-V476 (SEQ ID NO: 15) treated T47D lysates assayed by immunoblotting with antibodies against MLL1, ASH2L, RbBP5. […] G) Representative co-immunoprecipitations to show the interaction between RBM39 and its RBP interactors in Neg.CPP and CPP-E445-V476 treated T47D cell lysates. […]

[2] = molecular target: T2, RBM39 and RNA binding proteins (RBPs) (Homo sapiens, UniProt Q14498); experiment: Co-immunoprecipitation of RBM39 and its RBP interactors in peptide-treated T47D cell lysates; type: cell-based; details: versus Neg.CPP
T2 construct: endogenous in cells; host or cells: T47D
T2 sequence (Q14498 2-530 limits assumed): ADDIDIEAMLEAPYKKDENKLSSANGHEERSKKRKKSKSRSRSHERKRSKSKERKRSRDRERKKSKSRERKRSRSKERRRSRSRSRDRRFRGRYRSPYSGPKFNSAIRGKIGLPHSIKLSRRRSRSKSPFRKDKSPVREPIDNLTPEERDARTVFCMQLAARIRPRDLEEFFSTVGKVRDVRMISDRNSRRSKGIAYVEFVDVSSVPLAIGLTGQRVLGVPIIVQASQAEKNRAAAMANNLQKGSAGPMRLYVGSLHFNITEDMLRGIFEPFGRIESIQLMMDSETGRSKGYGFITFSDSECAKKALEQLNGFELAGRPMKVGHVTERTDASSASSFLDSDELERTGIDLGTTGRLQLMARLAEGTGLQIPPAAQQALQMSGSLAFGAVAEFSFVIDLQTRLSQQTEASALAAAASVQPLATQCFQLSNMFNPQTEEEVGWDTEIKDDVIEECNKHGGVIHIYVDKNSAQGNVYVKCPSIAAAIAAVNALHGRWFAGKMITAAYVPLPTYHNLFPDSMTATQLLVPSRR
From the text: as §2

[3] = tested on: breast cancer cell subtypes; experiment: Total cell number and viability of an array of breast cancer cell subtypes treated with synthetic RRM3-derived peptides; type: cell-based, human; details: synthetic peptides at 5 μM; for proliferation (total cell number) of breast cancer cell subtypes: 72 hours
Procedure: FIG. 10. RRM3-derived CPPs disrupts growth of multiple breast cancer cell subtypes but has no effect on normal cells. A) Schematic of RRM3 amino acids 441-510 (SEQ ID NO: 13). B) Bars represent the peptide regions used to generate CPPs based on deletion results in FIG. 31. C) Amino acid sequences of synthetic peptide: Penetratin, His tag and RRM3-derived peptide. D) Representative images of crystal violet stained breast cancer cells as listed at top, taken after 72 hours days of treatment with synthetic peptides at 5 μM. E) Quantification of total cell numbers of different cell types and peptide (1-5) treatments.
FIG. 31. Key structural domains mediate the RRM3-MLL1 interaction. A) Modeling of RRM3 domain structure (amino acids: 441 to 510; SEQ ID NO: 13) using the SWISS MODEL tool and conserved domains by sequence alignment with vertebrate RRM-domaining proteins (https://www.ncbi.nlm.nih.gov/Structure/cdd/cddsrv.cgi?uid=240731) B) Top: anti-MLL1 IB to test the interaction between MLL1 and myc-tagged, deletion mutant RRM3 proteins in HEK293 cells. Bottom: IB/IP to quantitate myc-tagged proteins in lysates from HEK293 overexpressing wild type and microdeleted RRM3 domains. C) Bar graphs quantitating % viable cells after peptide treatments (peptides are numbered 1-5 as in FIG. 10) for 4 days. […] Lanes are labeled with peptide names. Arrowhead highlights signal from the entry of CPP. […] F) Anti-RBM39 immunoprecipitated samples from Neg.CPP (SEQ ID NO: 12), CPP-L491-L508 (SEQ ID NO: 24), CPP-G441-V460 (SEQ ID NO: 20), and CPP-E445-V476 (SEQ ID NO: 15) treated T47D lysates assayed by immunoblotting with antibodies against MLL1, ASH2L, RbBP5. […] G) Representative co-immunoprecipitations to show the interaction between RBM39 and its RBP interactors in Neg.CPP and CPP-E445-V476 treated T47D cell lysates. […] Immunoprecipitations and Immunoblots assaying RBM39-MLL1 interaction in neg.CPP and CPP-E445-V476 treated T47D, HCC1954, MDA-MB231 and ZR7530 cells show reduced interaction between MLL1 and RBM39 in vivo. (arrows highlight decreased interaction).
as §1
Generation of synthetic peptides from the RRM3 domain: RRM3-derived peptides were commercially synthesized by Abm at purity >80%. Peptides were dissolved in 1λPBS at 1 mg/ml and used at 5 μM in low serum (1%) RPMI media.
As per UniProt, RRM3 spans amino acids (aa) 445-508 (SEQ ID NO: 34) and SWISS tool predicts 2 α helices and 4 β sheets that are conserved in vertebrate RRM-containing proteins (FIG. 31A). A series of myc-tag microdeleted constructs were designed to identify regions required for MLL1 binding. […]

endogenous interaction between RBM39 and MLL1 ([1]; T47D, HCC1954, MDA-MB231 and ZR7530 cells, versus neg.CPP)	interaction between RBM39 and MLL1 complex members (MLL1, ASH2L, RbBP5) ([1]; treated T47D lysates, anti-RBM39 immunoprecipitation)	interaction of RBM39 with RBPs [2]	Substance	effect on PMEs / normal cells (proliferation and viability) (PME cells)	proliferation (total cell number) of breast cancer cell subtypes [3]	viability (% viable cells) of breast cancer cell subtypes ([3]; 4 days)
disrupts the endogenous interaction	reduced the interaction	did not affect the interaction	CPP-E445-V476: synthetic RRM3-derived peptide E445-V476 with Penetratin and His tags (SEQ ID NO: 15; with His tag SEQ ID NO: 14) (RQIKIWFQNRRMKWKKGGEIKDDVIEECNKHGGVIHIYVDKNSAQGNVYVHHHHHH; RRM3-derived synthetic sequence)	no effect	pronounced effects on all subtypes	pronounced effects on all subtypes
			RRM3 E445-V476: RRM3 E445-V476 peptide in the absence of Penetratin, negative control (SEQ ID NO: 2) (EIKDDVIEECNKHGGVIHIYVDKNSAQGNVYV; listed as Homo sapiens)		no effect	
			CPP-G441-V460: synthetic RRM3-derived peptide G441-V460 with Penetratin and His tags (SEQ ID NO: 20; with His tag SEQ ID NO: 21) (RQIKIWFQNRRMKWKKGGGWDTEIKDDVIEECNKHGGVHHHHHH; RRM3-derived synthetic sequence)		affected some Luminal and HER2+ subtypes	
